The results in this text go back to ChEMBL document CHEMBL1147491, “Complestatin synthetic studies; the effect of the amino acid configuration on peptide backbone conformation in the common western BCD macrocycle” (Bioorg Med Chem Lett, 2004).

What all share (set-up): species or system Homo sapiens
A short description of assay [1]: Compound required to inhibit binding of CD4 to gp120 in the presence of bovine serum albumin(BSA).
Assay [2] is described as follows: Compound required to inhibit binding of CD4 to gp120 in the absence of bovine serum albumin(BSA).
Assay [3] in a line: Compound required to inhibit binding of CD4 to gp120 at 100 uM concentration; No inhibition.

A word on the IC50: it is the concentration at which inhibition is half-maximal. `CN1C(=O)[C@@H](c2cc(Cl)c(O)c(Cl)c2)NC(=O)[C@@H]2NC(=O)[C@@H](c3cc(Cl)c(O)c(Cl)c3)NC(=O)[C@H](NC(=O)C(=O)c3cc(Cl)c(O)c(Cl)c3)Cc3c[nH]c4c(cccc34)-c3cc2cc(c3O)Oc2ccc(cc2)C[C@H]1C(=O)N[C@@H](C(=O)O)c1ccc(O)cc1` [CHLOROPEPTIN]: the IC50 in assay [1] was found to be 2000 nM; in assay [2], 32 µM.

For the compound `CN[C@H](CC(C)C)C(=O)N[C@H]1C(=O)N[C@@H](CC(N)=O)C(=O)N[C@H]2C(=O)N[C@H]3C(=O)N[C@H](C(=O)N[C@H](C(=O)O)c4cc(O)cc(O)c4-c4cc3ccc4O)[C@H](O)c3ccc(c(Cl)c3)Oc3cc2cc(c3O[C@@H]2O[C@H](CO)[C@@H](O)[C@H](O)[C@H]2O[C@H]2C[C@](C)(N)[C@H](O)[C@H](C)O2)Oc2ccc(cc2Cl)[C@H]1O` [VANCOMYCIN], the IC50 result in assay [3] is listed as “No inhibition”.
